# Experimental data from a melting point compilation (Tetko et al.; mined from patent text by program, amines drawn as free bases though some values may be those of a salt).
row,melting point [°C],Structure (SMILES)
1,225 to 227,O=c1[nH]c(Cc2cccc(O)c2)cc2ccccc12
2,106 to 108,NCCCNc1cccc2c1C(=O)c1ccccc1C2=O
3,210,Cc1cccc(NC(=O)NCC(=O)N(CC(=O)Nc2ccc3c(c2)CCC3)c2ccccc2)c1
4,165 to 166,CCN1C(=O)C(C)(C)C(=O)N(C)c2cc(CCN(CCn3cc(C)c4occc4c3=O)Cc3cnccc3C)ccc21
5,48.5 to 49,CCCN(CCC)c1c([N+](=O)[O-])cc(C)c(C(C)C)c1[N+](=O)[O-]
6,137 to 138,NS(=O)(=O)c1ccc2c(c1)C(O)CCC2 (stereo not drawn)
7,224 to 226,CCCn1c(CCOC)nc2c(N)nc3cc(OC4CCN(S(C)(=O)=O)CC4)ccc3c21
8,50 to 51,CCCCCCCCCCCCCCCCOCC(CO)Oc1ccon1 (stereo not drawn)
9,225 to 226,COc1cc2c(cc1-c1cccnc1)-c1c(-c3cccs3)c3c(n1CC2)C(=O)N(C(C)C)CCN(C(C)=O)C3
10,192 to 194,O=C(CC1c2cc(Cl)ccc2S(=O)(=O)N1c1ccccc1)NO (stereo not drawn)
11,132 to 133,CCc1cn([C@@H]2CO[C@H](CO)O2)c(=O)[nH]c1=O
12,229 to 231,O=C(O)C=Cc1cn(CC(C(=O)c2ccc(Cl)cc2Cl)c2ccccc2)cn1 (stereo not drawn)
13,160 to 166,Cc1cccc(C)c1N1CC(C)N(c2cccc(C(F)(F)F)c2)C1=N (stereo not drawn)
14,41 to 43,COC(=O)c1ccc(C)cc1N
15,145 to 147,CCCCc1oc2ccc(-c3nnn[nH]3)cc2c1C(=O)c1ccc(OCCCN(CCCC)CCCC)cc1
16,81 to 82,COC1=C(c2ccccc2CSc2nc3ccccc3s2)C(=O)OC1
17,104 to 105,Cc1oc(-c2ccco2)nc1COc1ccc(COc2nn(Cc3ccccc3)cc2C=O)cn1
18,134 to 135,COc1cc(CC(=O)O)ccc1OCCCc1cn(-c2ccc(C(F)(F)F)cn2)nc1C(C)C
19,140 to 153,CC(C)(C)c1cc2c(c(C(C)(C)C)c1)OC(=O)C2c1ccc2c(c1)-c1ccccc1C2 (stereo not drawn)
20,95 to 96,CCCCCC(=O)OCn1cc(F)c(=O)[nH]c1=O
21,181 to 182,Nc1ccc(C(=O)N2CCNC(=O)C2c2cccs2)cc1 (stereo not drawn)
22,119 to 121,O=C(CC(CNS(=O)(=O)c1ccc(Oc2ccccc2)cc1)c1ccc(Cl)cc1)Nc1ccc(C(=O)O)cc1 (stereo not drawn)
23,116 to 140,CCCCCCCCCCCCCCCCCCNC(=O)NCCCN

row,melting point [°C],Structure (SMILES)
1,137 to 138,CCOC(=O)CCC1OC(n2cc(CC)c(=O)[nH]c2=O)CC1OC(C)=O (stereo not drawn)
2,105 to 107,CCCCC1(CCCC)CS(=O)(=O)c2ccc(N(C)C)cc2[C@@H](c2ccc(OCc3cccc(CCC(=O)O)n3)cc2)[C@H]1O
3,265 to 267,O=c1[nH]c2c([nH]c1=O)C(N1CCOCC1)c1ccccc1-2 (stereo not drawn)
4,260 to 262,Cc1ccccc1C=C1CCc2c1oc1ccc(C#N)cc1c2=O
5,158 to 160,COCCOc1cccc(-c2cncc(C#N)c2Nc2ccc3[nH]ccc3c2C)c1
6,241 to 242,Cc1c(-c2ccc(O)cc2)oc2ccccc2c1=O
7,135 to 137,O=[N+]([O-])c1cc(Cl)cc2c1OCCO2
8,223 to 225,O=c1[nH]c2ccc(Cl)cc2c(=O)n1S(=O)(=O)c1ccc(Cl)cc1
9,226 to 229,COc1c(N2C[C@H](CF)[C@](C)(N)C2)c(F)cc2c(=O)c(C(=O)O)cn(C3CC3)c12
10,133 to 134,O=S(=O)(Oc1ccc(C(c2ccc(OS(=O)(=O)c3ccccc3)cc2)(C(F)(F)F)C(F)(F)F)cc1)c1ccccc1
11,190 to 195,CCCCOC(=O)c1cc2c3ccccc3[nH]c(=O)n2n1
12,228 to 229,CCCc1nc2c(N)nc3ccccc3c2n1CC1(O)CCC1
13,152 to 154,CCOC(=O)Cc1csc(-c2c(O)cccc2O)n1
14,114,CC(C)(C)OC(=O)NCC1CCc2cc(O)ccc2C1 (stereo not drawn)
15,229 to 230,COCCOc1cc(OC)c2c(=O)[nH]c(-c3cc(C)nc(C)c3)nc2c1
16,142 to 145,CN(SCl)C(=O)Nc1ccc(Cl)c(Cl)c1
17,113,CCCn1c2cc(OCc3ccccc3)ccc2c2ccnc(C)c21
18,73 to 75,COC(COc1cc(C)cc(O)c1)OC
19,149 to 150,CCCCOc1c(CNC(=O)OC(C)(C)C)n(CC(C)(C)C)c(=O)c2ccc(C=O)cc12
20,129 to 130,Cc1c(OCCSCc2ccco2)ccnc1CNc1ncncc1Cl
21,196 to 200,N#Cc1c(C(F)(F)F)nn(-c2c(Cl)cc(C(F)(F)F)cc2Cl)c1N
22,93.7,COc1ccc([C@]2(C)CNC(=O)O2)cc1OCC(C)C
23,205,CNC(=O)c1cc(Br)cc(I)c1

row,melting point [°C],Structure (SMILES)
1,179 to 180,N#Cc1cc(C(=O)NCc2cccc([N+](=O)[O-])c2)c(OCC(=O)O)cc1F
2,212 to 213,COc1ccc(/C=C/C(=O)Nc2cc3ccccc3cc2C(=O)O)cc1OC
3,73 to 76,COc1cccc2sc(C3(O)CCN(C(=O)OC(C)(C)C)C(C)C3)cc12 (stereo not drawn)
4,126 to 130,Cc1ccc(C(=O)[C@@](O)(C(=O)O)[C@H](O)C(=O)O)cc1
5,165 to 167,COC(=O)c1ccnc(N2CCN(Cc3cccnc3)C2=O)c1
6,63,CCCCC(=O)Nc1ccccc1C(F)(F)F
7,187 to 189,CN1CCN(c2ncnc3c(N)cccc23)C1=O
8,> 280,CCOc1cc2c(=O)cc(C(=O)O)[nH]c2ccc1=O
9,96 to 98,Cc1cn(COC(COCc2ccccc2)COCc2ccccc2)c(=O)[nH]c1=O
10,147 to 149,CC(Oc1ncn(-c2cccc(C(F)(F)F)c2)n1)C(N)=O (stereo not drawn)
11,275 to 276,N=S1C(n2c(S)nnc2-c2ccc(O)cc2)=CC=C1[N+](=O)[O-] (stereo not drawn)
12,218 to 220,NS(=O)(=O)N1CCN(c2ccc(Cl)cc2)CC1
13,138 to 139,CCN(S(=O)(=O)NC(=O)N1N=C(C)CC1c1ccccc1)S(=O)(=O)N(C)C (stereo not drawn)
14,152 to 154,Cn1cc(-c2cccc(Br)c2)c(=O)c(-c2ccc(Cl)c(Cl)c2)c1
15,84 to 85,COC(=O)[C@@H](O)[C@H](CC(C)C)NC(=O)OC(C)(C)C
16,145 to 146,COc1ccc(C(=O)NCCOc2ccc(CC(Oc3ccccc3)C(=O)O)cc2)cn1 (stereo not drawn)
17,162 to 163,CC(C)(CO)NC(=O)Cc1ccc2c(c1)C(=O)c1sccc1CO2
18,218 to 225,COc1cc2c(cc1Nc1ncc(Cl)c(Nc3ccccc3S(=O)(=O)N(C)C)n1)CCN(CC(=O)N(C)C)CC2
19,143 to 145,COC(=O)C1=Cc2cc(Br)ccc2NCC1
20,113 to 115,COc1cc(-c2ccccc2)c([N+](=O)[O-])cc1OC
21,100 to 101,Cc1ccnc2c(N)cc(F)cc12
22,94.5 to 95,CC1(C)C(=O)C(C(=O)c2ccc(C(F)(F)F)nc2CBr)=C(Cl)C(C)(C)C1=O
23,124 to 126,CC(=O)c1nc2ccc(C)cc2cc1O

row,melting point [°C],Structure (SMILES)
1,117 to 119,O=C(O)CCc1ccc(SCCNS(=O)(=O)c2ccc(Cl)cc2)cc1
2,168 to 170,S=C(Nc1ccc(Cl)cc1)NC1CC2C3CC4C2C4C13 (stereo not drawn)
3,75.2,CCCOc1ccccc1CN1N=C(CCC)C(=CNc2ccccc2CC)C1=O
4,193 to 194,N#Cc1c(N2CCN(Cc3ccccc3)CC2)nn2c(-c3ccncc3)ccnc12
5,143 to 148,CN1C(=O)CC[C@]2(C)c3ccc(-c4ccc(F)c(F)c4)cc3CC[C@@H]12
6,97 to 99,COC(=O)c1ccc(C=C(Br)Br)c(N)c1
7,219 to 222,CC(C)(C)c1cc(NC(=O)c2cccc(C#N)c2)cc(C(C)(C)C)c1O
8,108 to 110,NC(=O)c1cn(CCOC(=O)Oc2ccccc2)nc1[N+](=O)[O-]
9,110 to 111,O=C(CNC(=O)C1CCCCC1)c1ccco1
10,206 to 207,COCc1ccn2c(C)c(CCc3ccc4nc(N)oc4c3)nc2c1
11,198 to 200,NC(=O)N1C(=O)C(=C(OC(=O)C=CC(=O)O)c2cccs2)c2cc(Cl)ccc21
12,110 to 112,O=C(O)c1nn(-c2ccc(F)cc2F)c2c1[C@H]1CC[C@@H]2C1
13,264,Cc1cc(-c2ccc(C(F)(F)F)cc2)nc(-c2ccnc(-c3ccc(S(N)(=O)=O)s3)c2)n1
14,147 to 148,c1ccc(-c2cccc(-n3cnc4cc(-n5cccc5)ccc43)c2)nc1
15,204 to 206,CC(=O)Nc1ccc2cccc(Oc3cc(-c4ccc(C(F)(F)F)cc4)ncn3)c2n1
16,216 to 220,O=C1Nc2ccccc2C12COc1cc3c(cc12)CCCO3 (stereo not drawn)
17,165 to 166,CN(C)c1cc2c(cc1OCc1ccccc1)CCC1C2CCC2(C)C(=O)CCC12 (stereo not drawn)
18,98 to 101,CCCCOCCOc1ccc(-c2ccc3c(c2)C=C(C(=O)Nc2ccc(SCc4n[nH]c(=O)n4CCC)cc2)CCN3CC(C)C)cc1
19,190 to 194,Cc1ccccc1C(=O)Nc1ccc(C(=O)N2Cc3ccccc3-c3ccccc32)cc1
20,119 to 120,CC(O)c1ccc(Cc2c(Cl)cc(N3N=CCNC3=O)cc2Cl)cc1 (stereo not drawn)
21,222 to 224,COCC#Cc1cc(F)c2ncc(C(=O)NCc3ccc(Cl)cc3)c(O)c2c1
22,162 to 164,C[C@@H](O)[C@H]1CC[C@H]2[C@@H]3C=CC4=CC(=O)C=C[C@]4(C)[C@H]3CC[C@]12C
23,138 to 140,CCOC(=O)c1cn(-c2nccs2)c2nc(N3CCC(NC(=O)[C@H](C)NC(=O)OC(C)(C)C)C3)ccc2c1=O (stereo partly drawn)

row,Structure (SMILES),melting point [°C]
1,O=C(NC1N=C(c2ccccc2)c2ccccc2NC1=O)c1c[nH]c2ccccc12 (racemic),265 to 268
2,O=C(O)c1ccccc1C(=O)NCCN1CCN(CCOC(c2ccccc2)c2ccccc2)CC1,45
3,C=Cc1cc(O)cc2nc(-c3ccc(OP(=O)(OCC)OCC)c(F)c3)oc12,134 to 136
4,CCC1C(C)=NN=C(c2ccc(O)c(O)c2)c2cc(OC)c(O)cc21 (stereo not drawn),254 to 255
5,CCCN(CCC)Cc1nnc(-c2ncn3c2CN(C)C(=O)c2c(Cl)cccc2-3)o1,188 to 195
6,COC(=O)c1nnc2n1-c1ccc(Cl)cc1C(c1ccccc1)=NC2,216 to 217
